According to patent publication US5118681A (priority 1989, dated 1992):
Converted amounts (≈) assume the structure as drawn.

How the values were obtained:
A.n = assay: Minimum Inhibitory Concentration Test, alternate (Table 4), A.n; type: cell-based, Aspergillus niger; settings: TSB, 72 hours; for MIC: Aspergillus niger
How it was run: (§1)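 Compound in acetone was diluted into TSB and serially diluted 1:1 from 250 ppm down to 0.8 ppm, in duplicate. Plates were inoculated with diluted 24 h culture and incubated 3 days at 30° C; MIC recorded as lowest concentration with no growth.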

[1] = tested on: Pseudomonas fluorescens (Ps.fl); assay: MIC, broth two-fold serial dilution (Table 3), Ps.fl; type: cell-based; settings: Table 3, broth two-fold serial dilution, read-out: MIC Ps.fl
Source text: (§2) A minimum inhibitory concentration (MIC) value is obtained using a broth, two-fold serial dilution test performed as follows: A stock solution or dispersion of the test compound, typically at a concentration of 1%, is made in a 5:3:2 solvent solution of acetone, methanol, and water. A volume of the stock solution is dispensed into culture media to give an initial starting test concentration of 500 ppm compound.
(§3) When the test is ready to be done, each vessel in the dilution series, except the first vessel, contains an equal volume of compound free broth. The first vessel contains twice the volume of broth with the starting concentration of test compound. One half of the broth from the first vessel is transferred to the second vessel. After being mixed, one half the resulting volume is removed from the second vessel and transferred to the third vessel. The entire cycle is repeated sufficiently to give a series of concentrations amounting to 500, 250, 125, 63, 31, 16, 8, and 4 ppm, respectively.
(§4) Each vessel is then inoculated with a cell suspension of the appropriate test organism. Bacteria are grown in broth and fungi on agar slants for a time and at a temperature appropriate to the species being tested. At the end of the growth period, the broth is vortexed to disperse the cells. In the case of fungi, the spores are harvested by pipetting water onto the slant and dislodging the spores with a sterile loop. The cell/spore suspension is standardized by controlling incubation time, temperature, and the volume of the diluent. The suspension is then used to inoculate the vessels containing the broth compound. The vessels are then incubated at the appropriate temperature. After the incubation, the vessels are examined for growth/no growth. The minimum inhibitory concentration (MIC) is defined as the lowest concentration of compound that results in complete inhibition of growth of the test organism.
Pseudomonas fluorescens (Ps.fl), gram negative

[2] = tested on: Erysiphe graminis (f. sp. tritici); assay: whole plant or invertebrate; type: in vivo; settings: for pest or weed control at 300 ppm: Blumeria graminis, read-out: % control WPM; for % control WPM: in vivo
Phytophthora infestans = assay: whole plant or invertebrate; type: in vivo; settings: for pest or weed control at 300 ppm: Phytophthora infestans, in Solanum lycopersicum, 96 h, read-out: % control TLB
ps.fl bacteria = assay: Speed of Kill (SOK) test, 4 h, synthetic hard water (Table 3); type: cell-based; settings: Pseudomonas fluorescens; Table 3; Ps.fl in synthetic hard water, 4 hours, 30° C; read-out: SOK (concentration at which compound killed >99.999% of the cells)
Source text: The Speed of Kill (SOK) Test measures the loss of cell viability in an aqueous suspension of bacterial cells during a four hour period when these cells are contacted with a defined concentration of the test compound in synthetic hard water (SHW). A stock solution or dispersion of the test compound, typically at a concentration of 1%, is made in a 5:3:2 solvent solution of acetone, methanol, and water. The SHW is made by taking one liter of sterile deionized water and adding the following solutions to it:
1. 2 ml of a solution of 31.74 g of MgCl2 and 73.99 g of CaCl2 in 1000 ml of sterile distilled water which has been heat sterillized.
2. 4 ml of a solution of 56.03 g of NaHCO3 in 1000 ml of water which has been filter sterillized.
The combined solution is then filter sterilized to yield the SHW. A volume of the stock solution is dispensed into the SHW to give an initial test compound starting concentration of 500 ppm.
as §3, with “run,” for “done,”, “the SHW mixture with the test compound.” for “compound free broth.”, “SHW” for “broth”
Each vessel is then inoculated with a cell suspension of the ps.fl bacteria. The bacteria were grown on a 1% agar slant tube and incubated for 18-24 hours at 30° C. Thereafter, the tube is washed with four ml of sterile water. This was is diluted to a density of 60 to 80 Nephlolmeter Turbidity Units (NTU). To 100 ml of the SHW containing the various concentrations of the test compound is added 0.75 ml of inoculum from the 60-80 NTU wash with good mixing. After 4 hours from the time of addition at 30° C., 5 μl of solution is transferred to 100 μl of a broth solution in order to recover any living cells. This mixture is incubated for 24 hours at 30° C. before noting the concentration in ppm at which each compound killed >99.999% of the cells in the SHW solution.

[3] = tested on: Puccinia graminis (f. sp. tritici Race 15B-2); assay: whole plant or invertebrate; type: in vivo; settings: 336 h, read-out: % control WSR
Escherichia coli (E.c) = assay: MIC, broth two-fold serial dilution (Table 3), E.c; type: cell-based; settings: Table 3, broth two-fold serial dilution, read-out: MIC E.c
Source text: as §2, §3, §4
Escherichia coli (E.c), gram negative

Aspergillus niger (A.n) = assay: MIC, broth two-fold serial dilution (Table 3), A.n; type: cell-based; settings: read-out: MIC A.n
Source text: as §2, §3, §4

[4] = tested on: Pellicularia filamentosa (f. sp. sasiki); assay: whole plant or invertebrate; type: in vivo; settings: for % control RSB: in vivo
Piricularia oryzae = assay: whole plant or invertebrate; type: in vivo; settings: for % control RB: in vivo
[5] = tested on: Pseudoperonospora cubensis; assay: whole plant or invertebrate; type: in vivo; settings: for % control CDM: in vivo
Pseudomonas fluorescens [6] = assay: Minimum Inhibitory Concentration Test, alternate (Table 4), Ps.fl; type: cell-based; settings: TSB, 72 hours, 30° C; for MIC: Pseudomonas fluorescens
How it was run: as §1

[7] = tested on: Aureobasidium pullulans (A.p); assay: MIC, broth two-fold serial dilution (Table 3), A.p; type: cell-based; settings: Table 3, broth two-fold serial dilution, read-out: MIC A.p
Source text: as §2, §3, §4
Aureobasidium pullulans (A.p)

[8] = tested on: Staphylococcus aureus (S.a); assay: MIC, broth two-fold serial dilution (Table 3), S.a; type: cell-based; settings: Table 3, broth two-fold serial dilution, read-out: MIC S.a
Source text: as §2, §3, §4
Staphylococcus aureus (S.a), gram positive

[9] = tested on: Pseudomonas aerugenosa (Ps.ae); assay: MIC, broth two-fold serial dilution (Table 3), Ps.ae; type: cell-based; settings: read-out: MIC Ps.ae
Source text: as §2, §3, §4
Pseudomonas aerugenosa (Ps.ae), gram negative

Pseudomonas fluorescens [10] = assay: Speed of Kill Test, alternate, 24 h, synthetic hard water (Table 4); type: cell-based; settings: Ps.fl in synthetic hard water, 100 ppm
[11] = tested on: Puccinia recondita (f. sp. tritici Races PKB and PLD); assay: whole plant or invertebrate; type: in vivo; settings: in vivo
Ps.ae = assay: Minimum Inhibitory Concentration Test, alternate (Table 4), Ps.ae; type: cell-based, Pseudomonas aerugenosa; settings: TSB, 72 hours
E.c = assay: Minimum Inhibitory Concentration Test, alternate (Table 4), E.c; type: cell-based, Escherichia coli; settings: TSB, 72 hours
How it was run: as §1

Candida albicans (C.alb) = assay: Minimum Inhibitory Concentration Test, alternate (Table 4), C.alb; type: cell-based; settings: TSB, 72 hours
How it was run: as §1

S.a = assay: Minimum Inhibitory Concentration Test, alternate (Table 4), S.a; type: cell-based, Staphylococcus aureus; settings: TSB, 72 hours
How it was run: as §1

[12] = Pyricularia oryzae, read-out: % control RB
[13] = Pseudoperonospora cubensis, in Cucumis sativus, 168 h, read-out: % control CDM

| Compound | MIC (A.n) [µg/mL] | MIC [1] [µg/mL] | pest or weed control at 300 ppm [2] [%] | pest or weed control at 300 ppm (Phytophthora infestans) [%] | MBC (ps.fl bacteria) [µg/mL] | MIC (Escherichia coli (E.c)) [µg/mL] | MIC (Aspergillus niger (A.n)) [µg/mL] | MIC (Pseudomonas fluorescens [6]) [µg/mL] | MIC [7] [µg/mL] | MIC [8] [µg/mL] | MIC [9] [µg/mL] | MIC A.n (A.n) | % control WPM [2] [%] | % control RSB [4] [%] | % control RB (Piricularia oryzae) [%] | % control CDM [5] [%] | MIC Ps.fl (Pseudomonas fluorescens [6]) [ppm] | SOK (Pseudomonas fluorescens [10]) [ppm] | other results |
| --- | --- | --- | --- | --- | --- | --- | --- | --- | --- | --- | --- | --- | --- | --- | --- | --- | --- | --- | --- |
| CCCCCCCCNC(=O)/C(Cl)=C(/Cl)SC(C(C)=O)C(C)=O [Example 2, N-n-octyl-2,3-dichloro-cis-3-[3-(2,4-pentanedionyl)thio]acrylamide] | > 500 | > 500 | 78 | 10 | > 500 | > 500 | 8 (≈ 20.9 µM) | > 500 | < 4 | < 4 | < 4 | – | – | – | – | – | – | – | pest or weed control at 150 ppm [3]: 85%; pest or weed control at 300 ppm ([4]; 120 h, read-out: % control RSB): 0%; pest or weed control at 300 ppm (Piricularia oryzae; [12]): 0%; pest or weed control at 300 ppm [5, 13]: 85% |
| CC(=O)C(S/C(Cl)=C(/Cl)C(=O)NC1CCCCC1)C(C)=O [Example 6, N-cyclohexyl-2,3-dichloro-cis-3-[3-(2,4-pentanedionyl)thio]acrylamide] | > 500 | > 500 | 0 | 0 | > 500 | 500 (≈ 1420 µM) | 125 (≈ 355 µM) | > 500 | < 4 | 16 (≈ 45.4 µM) | 32 (≈ 90.8 µM) | – | – | – | – | – | – | – | pest or weed control at 300 ppm [3]: 0%; pest or weed control at 200 ppm ([4]; 120 h, read-out: % control RSB): 0%; pest or weed control at 200 ppm (Piricularia oryzae; [12]): 70%; pest or weed control at 200 ppm [5, 13]: 85% |
| N-n-octyl-cis-3-[2-(N-benzyl-N'-n-octylmalonodiamido)thio]acrylamide [Example 61] | – | – | – | – | – | – | – | – | – | – | – | > 250 ppm | 0 | 0 | 0 | 99 | > 250 | > 100 | % control TLB (Phytophthora infestans; 100 ppm application rate): 0%; % control WLR [11]: 0% |
| N-n-octyl-cis-3-{2-[ethyl-N-(2-thiophenylmethyl)malonamido]thio}acrylamide [Example 28] | – | – | – | – | – | – | – | – | – | – | – | 16-31 ppm | 0 | 0 | 25 | 96 | 500 | > 100 | MIC Ps.ae (Ps.ae): 500 ppm; % control TLB (Phytophthora infestans; 200 ppm application rate): 50%; MIC E.c (E.c): 500 ppm; MIC C.alb (Candida albicans (C.alb)): 63 ppm; MIC S.a (S.a): 500 ppm |
